The results in this text go back to the Kinase Knowledgebase extract (Sharma et al. 2016).

What is called inhibition is the drop in the measured response relative to a control, in per cent. Usually IC50 stands for the midpoint of a concentration-inhibition curve. High values mean weaker potency, low ones greater potency.

In one experiment the target is EGFR (UniProt P00533). To be noted: concentration not given here.
A further experiment addresses ROCK2 (UniProt O75116). As to the kind of experiment: Inhibition of ROCK2 Kinase Activity. The conditions noted are these: for inhibition: concentration not given here.
The next experiment has as its target MAPK14 (UniProt Q16539). As to the kind of experiment: Inhibition of MAPK14 Kinase Activity. To be noted: concentration not given here.
Another experiment concerns the target CDK2 (UniProt P24941). As to the kind of experiment: Enzyme Assay. To be noted: for inhibition: concentration not given here.

EGFR, sequence (P00533 whole entry, looked up): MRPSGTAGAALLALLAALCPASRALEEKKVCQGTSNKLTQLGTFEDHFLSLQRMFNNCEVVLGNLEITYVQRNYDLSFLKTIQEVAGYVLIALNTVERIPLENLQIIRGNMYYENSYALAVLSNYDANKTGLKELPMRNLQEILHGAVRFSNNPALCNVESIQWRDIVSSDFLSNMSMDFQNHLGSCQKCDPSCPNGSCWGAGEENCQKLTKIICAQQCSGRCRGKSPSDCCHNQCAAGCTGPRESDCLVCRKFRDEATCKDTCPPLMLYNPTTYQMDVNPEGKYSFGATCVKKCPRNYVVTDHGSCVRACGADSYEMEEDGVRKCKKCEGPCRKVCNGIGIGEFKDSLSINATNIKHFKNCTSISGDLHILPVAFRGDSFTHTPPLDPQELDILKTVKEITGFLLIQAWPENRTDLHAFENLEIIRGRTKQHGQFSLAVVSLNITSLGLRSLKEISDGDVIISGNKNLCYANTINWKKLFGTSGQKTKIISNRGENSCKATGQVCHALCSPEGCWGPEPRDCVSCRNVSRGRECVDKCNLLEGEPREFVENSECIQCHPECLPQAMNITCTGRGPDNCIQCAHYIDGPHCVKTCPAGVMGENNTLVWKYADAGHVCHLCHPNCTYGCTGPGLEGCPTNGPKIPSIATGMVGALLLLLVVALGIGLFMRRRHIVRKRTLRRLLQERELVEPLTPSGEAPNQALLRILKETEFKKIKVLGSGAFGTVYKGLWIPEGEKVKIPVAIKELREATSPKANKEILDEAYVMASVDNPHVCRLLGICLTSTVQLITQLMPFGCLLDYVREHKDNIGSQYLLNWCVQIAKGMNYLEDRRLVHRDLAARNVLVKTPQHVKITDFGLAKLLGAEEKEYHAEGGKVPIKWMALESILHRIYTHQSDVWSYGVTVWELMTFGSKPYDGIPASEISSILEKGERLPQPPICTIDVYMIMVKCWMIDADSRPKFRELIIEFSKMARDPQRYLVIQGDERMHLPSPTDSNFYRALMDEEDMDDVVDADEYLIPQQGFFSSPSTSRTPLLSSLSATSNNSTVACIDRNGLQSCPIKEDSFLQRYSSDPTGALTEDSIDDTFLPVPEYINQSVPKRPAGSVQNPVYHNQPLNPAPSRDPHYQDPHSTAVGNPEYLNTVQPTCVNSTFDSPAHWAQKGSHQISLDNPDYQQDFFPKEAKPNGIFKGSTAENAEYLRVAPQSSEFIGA
ROCK2, sequence (O75116 whole entry, looked up): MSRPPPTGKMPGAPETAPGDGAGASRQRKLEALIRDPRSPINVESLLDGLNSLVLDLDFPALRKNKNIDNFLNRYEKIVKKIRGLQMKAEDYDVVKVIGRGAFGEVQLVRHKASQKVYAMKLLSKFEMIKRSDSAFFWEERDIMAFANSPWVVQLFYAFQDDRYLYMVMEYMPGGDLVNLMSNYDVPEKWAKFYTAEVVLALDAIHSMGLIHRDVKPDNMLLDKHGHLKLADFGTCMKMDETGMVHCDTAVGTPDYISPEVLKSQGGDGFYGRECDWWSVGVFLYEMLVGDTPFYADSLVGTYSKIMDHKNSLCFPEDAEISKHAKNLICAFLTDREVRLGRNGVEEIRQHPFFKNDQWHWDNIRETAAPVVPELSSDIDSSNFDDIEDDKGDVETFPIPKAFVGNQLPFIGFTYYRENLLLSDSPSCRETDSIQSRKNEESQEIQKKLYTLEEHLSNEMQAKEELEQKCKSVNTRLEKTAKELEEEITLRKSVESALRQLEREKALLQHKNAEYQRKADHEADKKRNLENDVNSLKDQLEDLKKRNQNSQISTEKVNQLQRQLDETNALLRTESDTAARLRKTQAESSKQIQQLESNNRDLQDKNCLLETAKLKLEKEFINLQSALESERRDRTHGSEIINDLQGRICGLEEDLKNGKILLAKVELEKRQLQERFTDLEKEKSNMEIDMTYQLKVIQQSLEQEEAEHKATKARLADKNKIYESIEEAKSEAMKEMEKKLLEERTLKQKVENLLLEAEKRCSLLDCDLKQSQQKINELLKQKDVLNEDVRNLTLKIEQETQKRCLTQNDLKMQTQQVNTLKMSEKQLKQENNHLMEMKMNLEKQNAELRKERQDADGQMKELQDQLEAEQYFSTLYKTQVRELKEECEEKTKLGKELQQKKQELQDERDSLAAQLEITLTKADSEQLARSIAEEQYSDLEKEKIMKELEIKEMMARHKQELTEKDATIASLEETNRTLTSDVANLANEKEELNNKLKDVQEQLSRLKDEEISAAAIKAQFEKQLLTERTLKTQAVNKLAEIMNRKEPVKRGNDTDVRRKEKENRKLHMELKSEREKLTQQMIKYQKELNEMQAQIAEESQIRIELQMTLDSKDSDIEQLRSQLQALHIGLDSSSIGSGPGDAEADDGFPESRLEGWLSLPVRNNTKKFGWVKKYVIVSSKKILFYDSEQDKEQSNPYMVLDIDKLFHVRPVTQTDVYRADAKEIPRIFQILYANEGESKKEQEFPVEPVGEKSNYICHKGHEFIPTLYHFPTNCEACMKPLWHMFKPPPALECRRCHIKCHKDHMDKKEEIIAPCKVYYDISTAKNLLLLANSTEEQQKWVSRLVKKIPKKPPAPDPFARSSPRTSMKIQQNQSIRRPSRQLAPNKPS
MAPK14, sequence (Q16539 whole entry, looked up): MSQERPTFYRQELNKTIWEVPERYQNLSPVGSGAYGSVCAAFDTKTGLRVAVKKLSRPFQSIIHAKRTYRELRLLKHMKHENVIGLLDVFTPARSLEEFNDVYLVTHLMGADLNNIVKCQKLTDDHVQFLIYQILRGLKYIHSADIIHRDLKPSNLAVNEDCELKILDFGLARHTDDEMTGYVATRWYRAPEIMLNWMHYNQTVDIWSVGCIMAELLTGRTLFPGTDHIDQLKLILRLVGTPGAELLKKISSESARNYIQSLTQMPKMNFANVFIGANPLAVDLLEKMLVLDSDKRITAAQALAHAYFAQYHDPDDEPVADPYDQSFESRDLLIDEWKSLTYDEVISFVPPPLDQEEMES

In turn, `COc1cccc(-c2cncc(NCc3cccc(O)c3)c2)c1F` registered an inhibition on EGFR of 50 to 90%.
The compound `Oc1cccc(CNc2cncc(-c3cccc(O)c3F)c2)c1` had an inhibition at EGFR of 50 to 90%.
For `Oc1ccc(-c2cncc(NCc3ccc4c(c3)OCO4)c2)cc1`, the inhibition against ROCK2 lay within 50 to 90%.
The same measure, in the same setting: in the case of `Oc1ccc(-c2cncc(NCc3ccc(F)c(F)c3)c2)cc1` it was 50 to 90%.
For the compound `Oc1cccc(CNc2cncc(-c3cccc(O)c3)c2)c1`, the inhibition at EGFR and against ROCK2 was 50 to 90% each time.
The compound `O=C(O)c1cccc(-c2cncc(NCc3cccc(O)c3)c2)c1` showed an inhibition on EGFR of 50 to 90%.
With `COC(=O)c1cccc(CNc2cncc(-c3cccc(O)c3)c2)c1`, on EGFR, the inhibition was in the range of 50 to 90%.
In the case of `CC(=O)Nc1cccc(-c2cncc(NCc3cccc(O)c3)c2)c1`, the inhibition against EGFR and on MAPK14 was 50 to 90% throughout.
On to `Cc1ccc(CNc2cncc(-c3cccc(O)c3)c2)cc1O`, for which the inhibition against EGFR and at ROCK2 was 50 to 90% throughout.
For `O=C(NCCO)c1cccc(-c2cncc(NCc3cccc(O)c3)c2)c1`, on EGFR, the inhibition is 50 to 90%.
Regarding `COc1ccc(-c2cncc(NCc3cccc(O)c3)c2)cc1OC`, the inhibition against EGFR fell in the range of 50 to 90%.
For `Oc1cccc(CNc2cncc(Cc3cccc(O)c3)c2)c1`, the values for the inhibition on ROCK2 and against CDK2 were 50 to 90% and more than 90%, respectively.
As for `COc1cccc(-c2cncc(NCc3cccc(O)c3)c2)c1`, the inhibition at EGFR and against ROCK2 was 50 to 90% throughout. Besides, on CDK2, the IC50 was less than 1 µM.
On to `CN(C)CCNC(=O)c1cccc(-c2cncc(NCc3cccc(O)c3)c2)c1`, for which, on EGFR, the inhibition fell in the range of 50 to 90%.
At EGFR, `Oc1cccc(CNc2cncc(-c3ccc(N4CCOCC4)cc3)c2)c1` yielded an inhibition of 50 to 90%.
Compound `Oc1cccc(CNc2cncc(-c3cccnc3)c2)c1` yielded an inhibition on EGFR of 50 to 90%.
In turn, `OCc1cccc(-c2cncc(NCc3cccc(O)c3)c2)c1` displayed an inhibition at EGFR of 50 to 90%.
`COC(=O)c1cccc(-c2cncc(NCc3cccc(O)c3)c2)c1`: the inhibition was 50 to 90% against ROCK2 and more than 90% against CDK2.
Regarding `OCc1ccc(-c2cncc(NCc3cccc(O)c3)c2)cc1`, the inhibition against EGFR and on ROCK2 was 50 to 90% throughout.
With `Nc1cccc(-c2cncc(NCc3cccc(O)c3)c2)c1`, at EGFR, the inhibition was in the range of 50 to 90%.
Consider `CS(=O)(=O)Nc1cccc(-c2cncc(NCc3cccc(O)c3)c2)c1`, for which the inhibition on EGFR fell in the range of 50 to 90%.
With `NC(=O)c1cccc(-c2cncc(NCc3cccc(O)c3)c2)c1`, the inhibition against EGFR lay within 50 to 90%. On ROCK2, this compound returned an IC50 of less than 1 µM.
As to `CC(=O)Nc1cccc(-c2cncc(Nc3ccccc3F)c2)c1`, the inhibition at EGFR is 50 to 90%.
Regarding `Oc1cccc(CCNc2cncc(-c3cccc(O)c3)c2)c1`, at EGFR, the inhibition is more than 90%.
The same measure, in the same setting: for `O=C(Nc1cncc(-c2cccc(O)c2)c1)c1cccc(O)c1` the value was more than 90%.
At EGFR, `CC(=O)Nc1cccc(-c2cncc(Nc3ccc(F)cc3)c2)c1` registered an inhibition of 50 to 90%.
At ROCK2, `CN(Cc1cccc(O)c1)c1cncc(-c2cccc(O)c2)c1` showed an inhibition of 50 to 90%.
At EGFR, `Oc1cccc(CNc2cncc(-c3ccccc3)c2)c1` registered an inhibition of 50 to 90%.
Take `Oc1ccc(-c2cncc(NCc3cccc(O)c3)c2)cc1`: the inhibition at EGFR is 50 to 90%; against CDK2 it was more than 90%. The IC50 at ROCK2 is less than 1 µM.
